# Laboratory results as given in ChEMBL document CHEMBL3885861, “Open TG-GATES”.
# Organism: Rattus norvegicus
# Assay: Open TG-GATES - Regimen: Single
# Format: toxicity, organism-based, Sprague-Dawley
# Parameters: regimen Single, gender Male, age 6 weeks
# Conditions: in vivo, po, 0 mg/kg, route gavage, dose level Control; for APTT / Bas / Eos / Fbg / Hb / Ht / Lym / MCH / MCHC / MCV / Mono / Neu / PT / Plat / RBC / Ret / WBC: tissue Blood; for KIDNEY_L / KIDNEY_R / KIDNEY_TOTAL: tissue Kidney; for LIVER: tissue Liver; for A/G / ALP / ALT / AST / BUN / CRE / Ca / Cl / DBIL / GLC / IP / K / LDH / Na / PL / RALB / TBIL / TC / TG / TP / gamma-GTP: tissue Plasma
structure (smiles),measurement,setting,value
CC(=N)S [THIOACETAMIDE],TERMINAL_BW,3 h,187.1 g
same,APTT,3 h,17.5 s
same,Bas,3 h,0%
same,Eos,3 h,0.6%
same,Fbg,3 h,224.8 mg/dL
same,Hb,3 h,13.3 g/dL
same,Ht,3 h,40%
same,Lym,3 h,77.6%
same,MCH,3 h,21.7 pg
same,MCHC,3 h,33.1%
same,MCV,3 h,65.4 fL
same,Mono,3 h,8.2%
same,Neu,3 h,13.4%
same,PT,3 h,12 s
same,Plat,3 h,101.8 x10_4/uL
same,RBC,3 h,611.6 x10_4/ul
same,Ret,3 h,8.4%
same,WBC,3 h,120.6 x10_2/uL
same,KIDNEY_L,3 h,0.9 g
same,KIDNEY_R,3 h,0.9 g
same,KIDNEY_TOTAL,3 h,1.7 g
same,LIVER,3 h,8.7 g
same,A/G,3 h,2.1
same,ALP,3 h,962.8 IU/L
same,ALT,3 h,34.4 IU/L
same,AST,3 h,69.2 IU/L
same,BUN,3 h,10.2 mg/dL
same,CRE,3 h,0.5 mg/dL
same,Ca,3 h,10.6 mg/dL
same,Cl,3 h,103.6 meq/L
same,DBIL,3 h,0 mg/dL
same,GLC,3 h,181.6 mg/dL
same,IP,3 h,9.1 mg/dL
same,K,3 h,4.8 meq/L
same,LDH,3 h,87.6 IU/L
same,Na,3 h,137.2 meq/L
same,PL,3 h,141.8 mg/dL
same,RALB,3 h,3.7 g/dL
same,TBIL,3 h,0.4 mg/dL
same,TC,3 h,79.8 mg/dL
same,TG,3 h,52 mg/dL
same,TP,3 h,5.5 g/dL
same,gamma-GTP,3 h,1.8 IU/L
same,TERMINAL_BW,6 h,185.6 g
same,APTT,6 h,17 s
same,Bas,6 h,0%
same,Eos,6 h,1%
same,Fbg,6 h,221.6 mg/dL
same,Hb,6 h,13.1 g/dL
same,Ht,6 h,39.7%
same,Lym,6 h,79%
same,MCH,6 h,21.6 pg
same,MCHC,6 h,33.1%
same,MCV,6 h,65.2 fL
same,Mono,6 h,7.8%
same,Neu,6 h,12.8%
same,PT,6 h,12.1 s
same,Plat,6 h,104 x10_4/uL
same,RBC,6 h,610.4 x10_4/ul
same,Ret,6 h,9.2%
same,WBC,6 h,126.6 x10_2/uL
same,KIDNEY_L,6 h,0.9 g
same,KIDNEY_R,6 h,0.9 g
same,KIDNEY_TOTAL,6 h,1.8 g
same,LIVER,6 h,8.3 g
same,A/G,6 h,2.4
same,ALP,6 h,828.6 IU/L
same,ALT,6 h,30.2 IU/L
same,AST,6 h,65.2 IU/L
same,BUN,6 h,10.8 mg/dL
same,CRE,6 h,0.6 mg/dL
same,Ca,6 h,10.2 mg/dL
same,Cl,6 h,103.8 meq/L
same,DBIL,6 h,0.012 mg/dL
same,GLC,6 h,182.4 mg/dL
same,IP,6 h,9.6 mg/dL
same,K,6 h,5.1 meq/L
same,LDH,6 h,72.2 IU/L
same,Na,6 h,136.6 meq/L
same,PL,6 h,140.6 mg/dL
same,RALB,6 h,3.8 g/dL
same,TBIL,6 h,0.4 mg/dL
same,TC,6 h,80.8 mg/dL
same,TG,6 h,61.8 mg/dL
same,TP,6 h,5.4 g/dL
same,gamma-GTP,6 h,1 IU/L
same,TERMINAL_BW,9 h,186.9 g
same,APTT,9 h,16.2 s
same,Bas,9 h,0%
same,Eos,9 h,1%
same,Fbg,9 h,226.8 mg/dL
same,Hb,9 h,13 g/dL
same,Ht,9 h,39.5%
same,Lym,9 h,75%
same,MCH,9 h,22 pg
same,MCHC,9 h,33%
same,MCV,9 h,66.7 fL
same,Mono,9 h,7.8%
same,Neu,9 h,16.2%
same,PT,9 h,12.4 s
same,Plat,9 h,107.7 x10_4/uL
same,RBC,9 h,592 x10_4/ul
same,Ret,9 h,9.4%
same,WBC,9 h,120.6 x10_2/uL
same,KIDNEY_L,9 h,0.9 g
same,KIDNEY_R,9 h,0.9 g
same,KIDNEY_TOTAL,9 h,1.8 g
same,LIVER,9 h,8 g
same,A/G,9 h,2
same,ALP,9 h,859.8 IU/L
same,ALT,9 h,32.2 IU/L
same,AST,9 h,62.8 IU/L
same,BUN,9 h,13 mg/dL
same,CRE,9 h,0.5 mg/dL
same,Ca,9 h,10.3 mg/dL
same,Cl,9 h,104.6 meq/L
same,DBIL,9 h,0.03 mg/dL
same,GLC,9 h,186.2 mg/dL
same,IP,9 h,9.8 mg/dL
same,K,9 h,4.8 meq/L
same,LDH,9 h,84.4 IU/L
same,Na,9 h,136.6 meq/L
same,PL,9 h,124 mg/dL
same,RALB,9 h,3.7 g/dL
same,TBIL,9 h,0.4 mg/dL
same,TC,9 h,71.8 mg/dL
same,TG,9 h,42 mg/dL
same,TP,9 h,5.6 g/dL
same,gamma-GTP,9 h,1.4 IU/L
same,TERMINAL_BW,24 h,198.1 g
same,APTT,24 h,17.2 s
same,Bas,24 h,0%
same,Eos,24 h,0.8%
same,Fbg,24 h,218.5 mg/dL
same,Hb,24 h,13.3 g/dL
same,Ht,24 h,40.6%
same,Lym,24 h,80.8%
same,MCH,24 h,21.1 pg
same,MCHC,24 h,32.9%
same,MCV,24 h,64.2 fL
same,Mono,24 h,6.2%
same,Neu,24 h,12.5%
same,PT,24 h,12.1 s
same,Plat,24 h,107.1 x10_4/uL
same,RBC,24 h,632.8 x10_4/ul
same,Ret,24 h,8.1%
same,WBC,24 h,135 x10_2/uL
same,KIDNEY_L,24 h,0.9 g
same,KIDNEY_R,24 h,0.9 g
same,KIDNEY_TOTAL,24 h,1.8 g
same,LIVER,24 h,9.7 g
same,A/G,24 h,2.2
same,ALP,24 h,883 IU/L
same,ALT,24 h,32.5 IU/L
same,AST,24 h,63.5 IU/L
same,BUN,24 h,17.2 mg/dL
same,CRE,24 h,0.5 mg/dL
same,Ca,24 h,10.4 mg/dL
same,Cl,24 h,102.8 meq/L
same,DBIL,24 h,0.0425 mg/dL
same,GLC,24 h,183.2 mg/dL
same,IP,24 h,7.2 mg/dL
same,K,24 h,5.4 meq/L
same,LDH,24 h,87.2 IU/L
same,Na,24 h,136 meq/L
same,PL,24 h,152.8 mg/dL
same,RALB,24 h,4 g/dL
same,TBIL,24 h,0.3 mg/dL
same,TC,24 h,77.2 mg/dL
same,TG,24 h,113.2 mg/dL
same,TP,24 h,5.8 g/dL
same,gamma-GTP,24 h,1.5 IU/L
